Test results as given in patent US20240409602A1, “PEPTIDE MODULATORS OF NEUROLIGIN 4-NEUREXIN 1-BETA AXIS FOR TREATMENT OF LIVER DISORDERS” (HADASIT MEDICAL RESEARCH SERVICES AND DEVELOPMENT LTD., priority 2022, published 2024).
No end group written: not given here.

Legend:
[1] = system: β-neurexin; assay: β-neurexin expression in liver by RT-PCR in CCl4 model; format: in vivo; settings: relative to naïve mice, 5 or 10 mg/mice i.p. 3×/week for 4 weeks
[2] = system: Hep3B cells; assay: Cell cycle analysis of Hep3B cells by flow cytometry, PI staining; format: cell-based, human; settings: 8000 ng/ml
Procedure: Cell cycle analysis by Flow cytometry: evaluation of cell cycle stage of Hep3B HCC cells, was performed according to a standard protocol, using Propidium-Iodide (PI)-staining of nuclei. To […] attenuation of the proliferative capabilities of HCC cells following modulation by peptide 1, the stage of the cell cycle of Hep3B cells treated with 8000 ng/ml peptide 1 or with a control peptide having a scrambled sequence was evaluate using flow cytometry and Propidium Iodide (PI)-staining.

[3] = system: liver NK cells; assay: F-actin expression in liver NK cells (western blot, immunofluorescence) in CCl4 model; format: in vivo, mice; settings: immune-stained liver tissue, confocal microscopy
Procedure: Animal model: 40 WT naïve C57BL/6J male mice (12 weeks) were either induced for acute hepatic fibrosis by i.p injections of 0.5 μl pure carbon tetrachloride CCl4/g body weight (one to nine dilution in mineral oil) (CCl4; Sigma, C-5331) 3×/week for four weeks as an advanced model of hepatic fibrosis, or left untreated (induced n=32, control n=8 per experiment). NLGn4-Nrx1β PPI modulator peptide 1 was i.p injected to CCl4 induced mice as preventive doses from the beginning of the model starting at 1st week of CCl4 at a concentration of 5 and 10 mg/mice 3×/week for four weeks (5 mg/mice n=8, 10 mg/mice n=8). […] Food and water intake were recorded every week. […]
Western blot analysis: Liver protein extracts were homogenized with buffer (50 mmol/L Tris-HCl [pH 7.61, 0.25% Triton-X 100, 0.15 M NaCl, 10 mM CaCl2) and complete mini EDTA-free protease inhibitor cocktail (Roche Diagnostics, Mannheim, Germany). […] Immunoreactivity was detected using an ECL kit (Abcam).
Immunofluorescence staining: For deparaffinization, paraffin-embedded sections were placed at 60° C. for 15 minutes, incubated in xylene at room temperature for 15 minutes, and then transferred sequentially to 100% EtOH, 95% EtOH, 70% EtOH, and 50% EtOH for four minutes each at room temperature. […] An argon laser (488 nm excitation) was used to detect green fluorescence, and an Alexa Fluor laser (552 nm) to detect red fluorescence. […]

[4] = system: CCl4-induced mice (acute hepatic fibrosis model); assay: Serum ALT by ELISA in CCl4 model; format: in vivo; settings: 5 or 10 mg/mice i.p. 3×/week for 4 weeks
Procedure: (§1) Animal model: 40 WT naïve C57BL/6J male mice (12 weeks) were either induced for acute hepatic fibrosis by i.p injections of 0.5 μl pure carbon tetrachloride CCl4/g body weight (one to nine dilution in mineral oil) (CCl4; Sigma, C-5331) 3×/week for four weeks as an advanced model of hepatic fibrosis, or left untreated (induced n=32, control n=8 per experiment). NLGn4-Nrx1β PPI modulator peptide 1 was i.p injected to CCl4 induced mice as preventive doses from the beginning of the model starting at 1st week of CCl4 at a concentration of 5 and 10 mg/mice 3×/week for four weeks (5 mg/mice n=8, 10 mg/mice n=8). A scrambled peptide was also i.p injected to CCl4 induced mice (5 mg/mice n=8, 10 mg/mice n=8). Food and water intake were recorded every week. Mice were sacrificed two days after the final CCl4 injection. To this end, the animals were weighed and anesthetized with inhaled 5% isoflurane for 10 seconds before cervical dislocation.
(§2) Histological and biochemical assessment of mice livers: The posterior one-third of the liver was fixed in 4% formalin for 24 hours and then paraffin-embedded in an automated tissue processor. […] Serum ALT concentrations were determined using ELISA. […]

[5] = system: CCl4-induced mice (acute hepatic fibrosis model); assay: Liver histology (H&E, Sirius Red, Masson's trichrome) in CCl4 model; format: in vivo; settings: 5 or 10 mg/mice i.p. 3×/week for 4 weeks
Procedure: as §1, §2

[6] = system: LX2 cells; assay: αSMA in LX2 cells co-cultured with peptide pre-activated NK cells, flow cytometry; format: cell-based, human
Procedure: (§3) Cells: primary NK cells were isolated from patients having advanced fibrosis, human hepatic stellate cells (LX2) were commercially purchased.
Co-culture conditions: co-cultures conditions—peptides were supplemented to media of cultured NK cells for 6 h stimulation followed by a wash, trypsinization, and coculturing on LX2 cells for an additional 24 h.
(§4) Fluorescence-activated cell sorting (FACS): Staining colors of antibodies was as follows: αSMA>PE, CD107>FITC, CD56>. After analysis using LSR Fortessa analyzer, raw data was transferred to analysis program FCS Express v7.0.
To test if NLGn4-Nrx1β PPI inhibitory peptides mediated deactivation of LX2 cells is more prominent in the presence of NK cells, a co-culture setting was established for LX2 cells in the presence or absence of activated NK cells (FIGS. 4A-C).
In this setting, NK cells were stimulated with increasing concentrations of NLGn4-Nrx1βPPI inhibitory peptides before co-culturing them with LX2 cells, to examine whether pre-activation makes them more functional in deactivating LX2 cells.

[7] = system: NK cells; assay: NK cell activation (CD107a) in monoculture, flow cytometry; format: cell-based, human
Description: (§5) Inhibitory Peptide synthesis: inhibitory peptide 1: MEQGEFLNYD (SEQ ID NO: 1), inhibitory peptide 2: QILMEQGEFLNYDIM (SEQ ID NO: 2), inhibitory peptide 3: […] (SEQ ID NO: 3), and a control peptide having a scrambled sequence: LEGEDQNFYM (SEQ ID NO: 7) were synthesized by Pepscan Ltd. at a purity of 98.3%.
as §3
Monoculture conditions: peptides were supplemented to media of cultured NK cells for 6 h stimulation.
as §4
Three peptides potentially having an inhibitory effect on NLGn4-Nrx1β PPI were generated. The three peptides (peptide 1, peptide 2, and peptide 3) consist of different amino acid sequences (SEQ ID NO: 1, SEQ ID NO: 2, and SEQ ID NO: 3, respectively) that vary in length, all derived from the same binding site for the NLGn4X ligand β-neurexin. The active binding site includes a domain containing the amino acids 359-364 in NLGn4X and the epitopes critical for binding are E361, L363, H267, Y463, and E270.
Initially, peptides were screened for their effect on the activity of NK cells, which was evaluated by measuring the levels of CD107a activation marker. Monocultures of NK cells were stimulated with increasing concentrations of the potentially inhibitory NLGn4-Nrx1β PPI peptides (FIG. 1 and FIGS. 2A-B).

[8] = system: LX2 cells; assay: LX2 cell activity (αSMA) in monoculture, flow cytometry; format: cell-based, human; settings: monoculture, 2000, 4000, 8000 ng/ml (peptide 3: 2000 or 4000 ng/ml), vs untreated
Description: as §5, §3, §4
Following that, the NLGn4-Nrx1β PPI peptides were screened for their effect on the activity of LX2 cells, which was evaluated by measuring the levels of αSMA activation marker. Monocultures of LX2 cells were stimulated with increasing concentrations of the NLGn4-Nrx1βPPI peptides (FIGS. 3A-C).

[9] = biological target: neurexin 1β (Nrx1β) expressed on Hep3B hepatocellular carcinoma cells (human, UniProt Q9ULB1-3 31-1547); assay: cell-based or functional assay
Sequence of neurexin 1β (Nrx1β) expressed on Hep3B hepatocellular carcinoma cells (Q9ULB1 other isoform, or with tags, fused parts or gaps limits assumed): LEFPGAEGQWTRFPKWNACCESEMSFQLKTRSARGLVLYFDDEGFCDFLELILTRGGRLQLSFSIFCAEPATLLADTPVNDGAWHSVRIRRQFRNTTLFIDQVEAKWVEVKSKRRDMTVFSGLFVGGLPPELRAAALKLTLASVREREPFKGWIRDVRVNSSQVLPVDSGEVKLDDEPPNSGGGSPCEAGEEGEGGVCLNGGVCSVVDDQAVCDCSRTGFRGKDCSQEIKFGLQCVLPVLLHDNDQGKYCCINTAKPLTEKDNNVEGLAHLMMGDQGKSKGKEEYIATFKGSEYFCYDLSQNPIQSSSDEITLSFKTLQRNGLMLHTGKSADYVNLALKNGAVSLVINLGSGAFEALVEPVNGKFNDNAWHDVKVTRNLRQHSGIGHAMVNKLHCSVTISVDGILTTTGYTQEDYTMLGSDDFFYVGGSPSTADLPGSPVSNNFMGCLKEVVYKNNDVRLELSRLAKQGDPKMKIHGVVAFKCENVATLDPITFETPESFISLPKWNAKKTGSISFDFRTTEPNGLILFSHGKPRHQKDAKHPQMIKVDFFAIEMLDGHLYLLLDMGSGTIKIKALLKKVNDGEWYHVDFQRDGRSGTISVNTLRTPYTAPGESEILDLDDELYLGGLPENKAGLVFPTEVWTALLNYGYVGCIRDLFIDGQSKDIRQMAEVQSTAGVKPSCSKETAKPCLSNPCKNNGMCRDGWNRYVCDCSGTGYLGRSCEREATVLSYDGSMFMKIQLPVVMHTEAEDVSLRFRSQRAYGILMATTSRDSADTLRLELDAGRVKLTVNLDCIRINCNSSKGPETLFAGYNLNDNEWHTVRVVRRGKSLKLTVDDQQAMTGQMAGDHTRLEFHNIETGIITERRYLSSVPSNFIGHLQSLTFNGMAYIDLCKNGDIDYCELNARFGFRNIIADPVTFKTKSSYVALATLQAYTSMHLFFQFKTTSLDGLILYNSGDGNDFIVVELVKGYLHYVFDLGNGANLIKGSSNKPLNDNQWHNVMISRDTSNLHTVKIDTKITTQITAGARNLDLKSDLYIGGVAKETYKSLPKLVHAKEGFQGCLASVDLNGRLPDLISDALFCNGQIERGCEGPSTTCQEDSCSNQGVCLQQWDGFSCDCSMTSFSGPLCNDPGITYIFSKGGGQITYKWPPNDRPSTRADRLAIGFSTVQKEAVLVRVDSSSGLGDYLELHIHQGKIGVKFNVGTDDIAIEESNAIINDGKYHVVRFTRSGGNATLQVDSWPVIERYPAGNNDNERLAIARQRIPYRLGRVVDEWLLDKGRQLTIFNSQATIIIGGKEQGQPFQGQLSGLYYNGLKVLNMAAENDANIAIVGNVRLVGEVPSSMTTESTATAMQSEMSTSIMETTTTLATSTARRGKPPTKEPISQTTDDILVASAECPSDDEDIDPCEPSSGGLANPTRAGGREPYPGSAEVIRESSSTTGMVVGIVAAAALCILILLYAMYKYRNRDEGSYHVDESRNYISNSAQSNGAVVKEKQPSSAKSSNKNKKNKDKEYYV

## LEGEDQNFYM [scrambled peptide]
[1]
  levels of β-neurexin in liver: elevated levels of β-neurexin
[2]
  percentage of cells existing at a state of G1: 38%
  percentage of cells existing at a state of G2-M phase: 25%
  percentage of cells existing at a state of S-phase: 11%
[3]
  F-actin inside NK cells, co-localization with NKP46 (immunofluorescence): not seen inside NK cells
[4]
  levels of serum ALT: significant increase in ALT levels
[5]
  collagen deposition / fibrous dense tissue (Sirius Red staining): increased collagen deposition in perisinusoidal areas

## QILMEQGEFLNYDIM [peptide 2]
[6]; NK cells pre-activated with increasing concentrations
  dose dependence of effect in co-culture (αSMA): not dose-dependent
[6]; NK cells pre-stimulated 6 h with 2000-8000 ng/ml peptide, co-culture 24 h
  activity of LX2 cells (levels of αSMA) in co-culture with pre-activated NK cells: downregulated the activity of the LX2 cells
[7]; monoculture, 6 h stimulation, 2000, 4000, 8000 ng/ml (peptide 3: 2000 or 4000 ng/ml), vs untreated
  activity of NK cells (levels of CD107a): elevated the activity of the cells
[7]; monoculture, increasing concentrations 2000-8000 ng/ml
  dose dependence of effect on NK cell activity (CD107a): not dose-dependent
[8]
  activity of LX2 cells (levels of αSMA): deactivation of the cells

## DPQILMEQGEFLNYDIMLGV [peptide 3]
[7]; inferred from CD107a decrease at higher peptide concentrations
  toxicity to NK cells: may be toxic to the cells

## MEQGEFLNYD [NLGn4-Nrx1β PPI inhibitory peptide 1]
[9]
  apoptotic marker phosphatidylserine (Annexin-V+/PI-) in Hep3B cells (flow cytometry), peptide 1 against scrambled control peptide: 3 fold increase
  expression of PDGFRA and MKI67 proliferation markers in Hep3B cells (flow cytometry), peptide 1 against scrambled control peptide: ~2 fold reduction
  expression of the necrotic marker CDNK2A in Hep3B cells (flow cytometry), peptide 1 against scrambled control peptide: 2 fold reduction
  percentage of Hep3B cells in G1 phase (PI staining, flow cytometry), 8000 ng/ml peptide 1 against scrambled control peptide: ~2 fold increase
  percentage of Hep3B cells in G2-M phase (PI staining, flow cytometry), 8000 ng/ml peptide 1 against scrambled control peptide: 2.5 fold decrease
  percentage of Hep3B cells in S-phase (PI staining, flow cytometry), 8000 ng/ml peptide 1 against scrambled control peptide: ~2 fold decrease
  phosphorylated AKT/mTOR/P70S6K in Hep3B cells (flow cytometry), peptide 1 against scrambled control peptide: 2 fold reduction
